Data reported in patent publication US20240124412A1, “IKAROS ZINC FINGER FAMILY DEGRADERS AND USES THEREOF” (Gilead Sciences, Inc., priority 2021, published 2024).

Columns and labels:
IKZF1 = target: T1, IKZF1 (Homo sapiens, UniProt Q13422+Q96SW2); assay: HiBiT protein tagging assay, in vitro IKZF1 degradation (HEK293); format: cell-based; conditions: HEK293, 18-24 hr incubation, normalized to DMSO control; for Dmax: read-out: IKZF1 Dmax (maximum degradation at the highest concentration tested); for DC50: read-out: IKZF1 EC50
T1 construct: expressed in transfected cells
T1 sequence (Q13422 whole entry): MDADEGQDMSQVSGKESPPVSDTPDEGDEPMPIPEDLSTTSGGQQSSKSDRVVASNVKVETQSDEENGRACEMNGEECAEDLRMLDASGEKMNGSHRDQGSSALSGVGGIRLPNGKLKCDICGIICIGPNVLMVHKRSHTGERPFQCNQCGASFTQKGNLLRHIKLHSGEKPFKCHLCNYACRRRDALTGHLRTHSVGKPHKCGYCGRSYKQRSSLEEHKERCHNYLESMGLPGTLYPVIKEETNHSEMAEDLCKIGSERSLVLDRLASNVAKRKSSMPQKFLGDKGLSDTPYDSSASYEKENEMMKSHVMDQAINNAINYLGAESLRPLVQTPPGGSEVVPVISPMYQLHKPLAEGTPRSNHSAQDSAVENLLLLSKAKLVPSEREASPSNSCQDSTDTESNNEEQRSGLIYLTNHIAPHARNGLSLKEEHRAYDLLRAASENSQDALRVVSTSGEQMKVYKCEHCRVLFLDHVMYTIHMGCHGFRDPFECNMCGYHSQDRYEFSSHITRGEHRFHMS
T1 sequence (Q96SW2 whole entry): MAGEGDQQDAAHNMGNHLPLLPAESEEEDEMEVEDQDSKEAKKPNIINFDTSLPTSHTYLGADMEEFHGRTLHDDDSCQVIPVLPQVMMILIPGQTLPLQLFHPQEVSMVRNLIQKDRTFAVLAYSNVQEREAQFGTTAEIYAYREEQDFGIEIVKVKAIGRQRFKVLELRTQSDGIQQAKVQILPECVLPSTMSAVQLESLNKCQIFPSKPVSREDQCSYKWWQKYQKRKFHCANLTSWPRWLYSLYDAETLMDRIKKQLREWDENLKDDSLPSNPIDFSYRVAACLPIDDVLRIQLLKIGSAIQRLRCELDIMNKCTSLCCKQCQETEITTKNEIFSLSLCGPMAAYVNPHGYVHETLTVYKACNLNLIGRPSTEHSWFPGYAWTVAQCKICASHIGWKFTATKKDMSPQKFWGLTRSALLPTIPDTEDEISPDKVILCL
T1 sequence (Q16531 whole entry partner): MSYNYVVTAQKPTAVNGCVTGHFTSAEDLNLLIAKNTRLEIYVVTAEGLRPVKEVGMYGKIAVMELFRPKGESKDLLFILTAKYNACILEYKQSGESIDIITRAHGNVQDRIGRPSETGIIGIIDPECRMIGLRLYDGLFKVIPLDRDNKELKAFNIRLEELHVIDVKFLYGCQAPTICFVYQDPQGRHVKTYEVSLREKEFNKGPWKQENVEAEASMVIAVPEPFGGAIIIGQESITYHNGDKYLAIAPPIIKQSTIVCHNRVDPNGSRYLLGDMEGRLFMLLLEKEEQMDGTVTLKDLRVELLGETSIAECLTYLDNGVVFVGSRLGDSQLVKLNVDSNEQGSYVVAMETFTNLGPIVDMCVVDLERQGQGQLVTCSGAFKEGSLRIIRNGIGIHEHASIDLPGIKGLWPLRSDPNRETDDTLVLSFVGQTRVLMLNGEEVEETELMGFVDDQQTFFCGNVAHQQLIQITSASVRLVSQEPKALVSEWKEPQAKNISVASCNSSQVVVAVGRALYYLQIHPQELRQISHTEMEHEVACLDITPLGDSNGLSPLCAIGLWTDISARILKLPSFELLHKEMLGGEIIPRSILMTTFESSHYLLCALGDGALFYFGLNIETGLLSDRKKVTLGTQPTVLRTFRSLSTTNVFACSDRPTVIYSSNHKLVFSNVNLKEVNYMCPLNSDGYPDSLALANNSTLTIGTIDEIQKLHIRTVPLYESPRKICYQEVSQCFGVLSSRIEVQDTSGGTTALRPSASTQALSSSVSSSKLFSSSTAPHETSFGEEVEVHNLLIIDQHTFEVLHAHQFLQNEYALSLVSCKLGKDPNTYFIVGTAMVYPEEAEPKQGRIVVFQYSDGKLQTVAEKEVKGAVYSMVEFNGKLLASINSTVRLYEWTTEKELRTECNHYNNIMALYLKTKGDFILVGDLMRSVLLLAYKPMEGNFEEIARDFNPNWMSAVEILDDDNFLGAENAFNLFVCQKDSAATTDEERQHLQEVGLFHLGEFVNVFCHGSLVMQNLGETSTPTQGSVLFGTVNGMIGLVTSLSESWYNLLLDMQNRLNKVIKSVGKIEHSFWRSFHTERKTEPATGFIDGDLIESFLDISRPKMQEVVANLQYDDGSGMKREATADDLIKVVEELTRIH
Method in brief: (§1)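 Flp-In T-REx HEK293 pools stably expressing C-terminal HiBiT-tagged IKZF1 or IKZF2 were induced overnight with 1 μg/ml doxycycline. Cells were then treated with serially diluted compound for 18-24 hr at 37 °C and read by Nano-Glo lytic luminescence. Data were normalized to 0.5% DMSO as POC; EC50 and Dmax (maximum degradation at highest concentration tested) reported.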

IKZF2 = target: T2, IKZF2 (Homo sapiens, UniProt Q96SW2+Q9UKS7); assay: HiBiT protein tagging assay, in vitro IKZF2 degradation (HEK293); format: cell-based; conditions: HEK293, 18-24 hr incubation, normalized to DMSO control; for Dmax: HEK293, HiBiT assay, read-out: IKZF2 Dmax (maximum degradation at the highest concentration tested); for DC50: HiBiT assay, read-out: IKZF2 EC50
T2 construct: expressed in transfected cells
T2 sequence (Q9UKS7 1-500 isoform Q9UKS7-2): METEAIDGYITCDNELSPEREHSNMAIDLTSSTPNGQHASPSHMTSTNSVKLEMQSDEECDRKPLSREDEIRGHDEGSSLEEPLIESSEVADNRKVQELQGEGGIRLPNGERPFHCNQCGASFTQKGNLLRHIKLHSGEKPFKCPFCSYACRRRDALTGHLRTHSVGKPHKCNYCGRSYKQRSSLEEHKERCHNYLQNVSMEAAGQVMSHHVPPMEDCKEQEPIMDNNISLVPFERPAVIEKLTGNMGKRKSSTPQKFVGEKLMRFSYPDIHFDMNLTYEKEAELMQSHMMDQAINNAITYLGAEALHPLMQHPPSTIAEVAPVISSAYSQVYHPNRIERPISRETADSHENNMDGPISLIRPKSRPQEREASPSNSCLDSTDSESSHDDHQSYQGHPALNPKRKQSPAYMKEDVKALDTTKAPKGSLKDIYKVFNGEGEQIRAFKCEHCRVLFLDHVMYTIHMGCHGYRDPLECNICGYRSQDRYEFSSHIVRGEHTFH
T2 sequence (Q96SW2 whole entry): as the sequence (Q96SW2 whole entry) above
T2 sequence (Q16531 whole entry partner): as the sequence (Q16531 whole entry partner) above
Method in brief: as §1

Row | Dmax (IKZF1) | DC50 (IKZF1) | Dmax (IKZF2) | DC50 (IKZF2) | SMILES
1 | 35% | 23 nM | 43% | 48 nM | O=C1CCC(N2Cc3cc(CN[C@@H]4CCc5ccccc5C4)ccc3C2=O)C(=O)N1 (stereo partly drawn) [Example 14, 3-(1-oxo-5-((((R)-1,2,3,4-tetrahydronaphthalen-2-yl)amino)methyl)isoindolin-2-yl)piperidine-2,6-dione]
2 |  | > 1000 nM | 66% | 243 nM | O=C1CCC(N2Cc3cc(CNC45CCCC(O)(C4)C5)ccc3C2=O)C(=O)N1 (centres unmarked) [Example 143]
3 | 71% | 41 nM | 54% | 260 nM | C[C@@H](NCc1ccc2c(c1)CN(C1CCC(=O)NC1=O)C2=O)c1ccccc1 (stereo partly drawn) [Example 16, 3-(1-oxo-5-((((R)-1-phenylethyl)amino)methyl)isoindolin-2-yl)piperidine-2,6-dione]

Continued, compound first:

Row | SMILES | Dmax (IKZF1) | DC50 (IKZF1) | Dmax (IKZF2) | DC50 (IKZF2)
4 | O=C1CCC(N2Cc3cc(CN[C@@H]4CCCC[C@H]4OCc4ccccc4)ccc3C2=O)C(=O)N1 (some centres unmarked) [Example 126] | 53% | 151 nM | 93% | 79 nM
5 | CCCC[C@H]1CC[C@H](NCc2ccc3c(c2)CN(C2CCC(=O)NC2=O)C3=O)CC1 (some centres unmarked) [Example 79] | 30% | 169 nM | 69% | 218 nM
6 | N#CC[C@H]1CC[C@H](NCc2ccc3c(c2)CN(C2CCC(=O)NC2=O)C3=O)CC1 (some centres unmarked) [Example 63] | 44% | 609 nM | 91% | 361 nM
